# Experimental data as given in US20020137929A1, “1 - (3-heterocyclylphenyl) isothiourea, -isourea, -guanidine and -amidine herbicidal agents” (Intellectual Property Department, BASF Aktiengesellschaft, priority 1998, published 2002).
# Assays:
# [1] = system: ECHCG (Barnyardgrass); assay: Postemergence herbicidal evaluation; type: in vivo, Echinochloa crus-galli; conditions: postemergence
# In short: (§1)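 Each compound, dispersed in an acetone/water mix (50/50) carrying 0.5% TWEEN 20, is nozzle-sprayed at 40 psi on approximately two-week-old seedlings at about 0.0156–0.500 kg/ha. Plants are assessed 4–5 weeks afterward on a 0–9 scale relative to control; duplicate tests are averaged.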
# [2] = system: CHEAL (Lambsquarters, Common); assay: Postemergence herbicidal evaluation; type: in vivo, Chenopodium album; conditions: postemergence
# In short: as §1
# [3] = system: CYPIR (Rice Flatsedge); assay: Preemergence weed control under flooded paddy conditions; type: in vivo, Cyperus iria; conditions: rated 3-4 weeks after treatment
# In short: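 First, seeds or propagules go into the top 0.5 cm of silt loam; next, water is held 1.5 to 3 cm over the soil; then compound (50/50 acetone/water) is pipetted into it at about 0.0313 to 0.500 kg/ha; finally plants are rated visually 0-9 after three to four weeks.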
# [4] = system: GALAP (Galium); assay: Postemergence herbicidal evaluation; type: in vivo, Galium aparine; conditions: postemergence
# In short: as §1
# [5] = system: CASOB (Sicklepod); assay: Preemergence herbicidal evaluation; type: in vivo, Cassia obtusifolia; conditions: rated 4-5 weeks after treatment
# In short: (§2)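 Steps: mix seeds into potting soil; plant atop ~1 inch soil; spray compound in aqueous acetone (~0.0156-0.500 kg/ha equivalent); maintain in greenhouse with watering; rate visually 0-9 versus control at 4-5 weeks.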
# [6] = system: CYPSE (Flatsedge); assay: Preemergence weed control under flooded paddy conditions; type: in vivo, Cyperus serotinus; conditions: rated 3-4 weeks after treatment
# In short: (§3)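 Values are visual 0-9 scores against a control for a preemergence application into paddy flood water at about 0.0313 to 0.500 kg/ha. Greenhouse duration was three to four weeks.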
# [7] = system: ORYSAT (Rice, Tebonnet); assay: Postemergence herbicidal evaluation; type: in vivo, Oryza sativa, (L.) Tebonnet; conditions: postemergence
# In short: as §1
# [8] = system: GALAP (Galium); assay: Preemergence herbicidal evaluation; type: in vivo, Galium aparine; conditions: rated 4-5 weeks after treatment
# In short: as §2
# [9] = system: ZEAMX (Corn, Field); assay: Preemergence herbicidal evaluation; type: in vivo, Zea mays; conditions: rated 4-5 weeks after treatment
# In short: as §2
# [10] = system: AMBEL (Ragweed, Common); assay: Postemergence herbicidal evaluation; type: in vivo, Ambrosia artemisifolia; conditions: postemergence
# In short: as §1
# [11] = system: CASOB (Sicklepod); assay: Postemergence herbicidal evaluation; type: in vivo, Cassia obtusifolia; conditions: postemergence
# In short: as §1
# [12] = system: SETVI (Foxtail, Green); assay: Postemergence herbicidal evaluation; type: in vivo, Setaria viridis; conditions: postemergence
# In short: as §1
# [13] = system: SAGPY (Arrowhead (Pygmaea)); assay: Preemergence weed control under flooded paddy conditions; type: in vivo, Sagittaria pygmaea; conditions: rated 3-4 weeks after treatment
# In short: as §3
# [14] = system: GLXMAW (Soybean, Williams); assay: Postemergence herbicidal evaluation; type: in vivo, Glycine max, (L.) Merr. cv Williams; conditions: postemergence
# In short: as §1
smiles,measurement,setting,value
"Cn1c(C(F)(F)F)cc(=O)n(-c2cc(N=C3SCC(=O)N3CC(=O)OCC3CC3)c(Cl)cc2F)c1=O [Compound 124, Cyclopropylmethyl 2-{{2-chloro-5-[3,6-dihydro-3-methyl-2,6-dioxo-4-(trifluoromethyl)-1(2H)-pyrimidinyl]-4-fluorophenyl}imino}-4-oxo-3-thiazolidineacetate]",herbicidal rating ECHCG,[1]; rate 0.0156 kg/ha,3.0
same,herbicidal rating ECHCG,[1]; rate 0.0313 kg/ha,3.0
same,herbicidal rating ECHCG,[1]; rate 0.0625 kg/ha,5.0
same,herbicidal rating CHEAL,[2]; rate 0.0156 kg/ha,9.0
same,herbicidal rating CHEAL,[2]; rate 0.0313 kg/ha,9.0
same,herbicidal rating CHEAL,[2]; rate 0.0625 kg/ha,9.0
same,"herbicidal effect rating, CYPIR",[3]; 0.0313 kg/ha,0.0
same,"herbicidal effect rating, CYPIR",[3]; 0.0625 kg/ha,0.0
same,"herbicidal effect rating, CYPIR",[3]; 0.1250 kg/ha,0.0
same,"herbicidal effect rating, CYPIR",[3]; 0.2500 kg/ha,6.0
same,herbicidal rating GALAP,[4]; rate 0.0156 kg/ha,0.0
same,herbicidal rating GALAP,[4]; rate 0.0313 kg/ha,1.0
same,herbicidal rating GALAP,[4]; rate 0.0625 kg/ha,6.0
same,Preemergence herbicidal rating CASOB,[5]; rate 0.0156 kg/ha,0.0
same,Preemergence herbicidal rating CASOB,[5]; rate 0.0313 kg/ha,0.0
same,Preemergence herbicidal rating CASOB,[5]; rate 0.0625 kg/ha,1.0
same,Preemergence herbicidal rating CASOB,[5]; rate 0.1250 kg/ha,0.0
same,Preemergence herbicidal rating CASOB,[5]; rate 0.2500 kg/ha,3.0
same,Preemergence herbicidal rating CASOB,[5]; rate 0.5000 kg/ha,0.0
same,"herbicidal effect rating, CYPSE",[6]; 0.0313 kg/ha,0.0
same,"herbicidal effect rating, CYPSE",[6]; 0.0625 kg/ha,0.0
same,"herbicidal effect rating, CYPSE",[6]; 0.1250 kg/ha,2.0
same,"herbicidal effect rating, CYPSE",[6]; 0.2500 kg/ha,3.0
same,herbicidal rating ORYSAT,[7]; rate 0.0156 kg/ha,3.3
same,herbicidal rating ORYSAT,[7]; rate 0.0313 kg/ha,3.0
same,herbicidal rating ORYSAT,[7]; rate 0.0625 kg/ha,3.0
same,Preemergence herbicidal rating GALAP,[8]; rate 0.0156 kg/ha,0.0
same,Preemergence herbicidal rating GALAP,[8]; rate 0.0313 kg/ha,0.0
same,Preemergence herbicidal rating GALAP,[8]; rate 0.0625 kg/ha,0.0
same,Preemergence herbicidal rating GALAP,[8]; rate 0.1250 kg/ha,0.0
same,Preemergence herbicidal rating GALAP,[8]; rate 0.2500 kg/ha,6.0
same,Preemergence herbicidal rating GALAP,[8]; rate 0.5000 kg/ha,7.0
same,Preemergence herbicidal rating ZEAMX,[9]; rate 0.0156 kg/ha,0.0
same,Preemergence herbicidal rating ZEAMX,[9]; rate 0.0313 kg/ha,0.0
same,Preemergence herbicidal rating ZEAMX,[9]; rate 0.0625 kg/ha,0.0
same,Preemergence herbicidal rating ZEAMX,[9]; rate 0.1250 kg/ha,0.0
same,Preemergence herbicidal rating ZEAMX,[9]; rate 0.2500 kg/ha,0.0
same,Preemergence herbicidal rating ZEAMX,[9]; rate 0.5000 kg/ha,1.0
same,herbicidal rating AMBEL,[10]; rate 0.0156 kg/ha,9.0
same,herbicidal rating AMBEL,[10]; rate 0.0313 kg/ha,9.0
same,herbicidal rating AMBEL,[10]; rate 0.0625 kg/ha,9.0
same,herbicidal rating CASOB,[11]; rate 0.0156 kg/ha,2.0
same,herbicidal rating CASOB,[11]; rate 0.0313 kg/ha,2.0
same,herbicidal rating CASOB,[11]; rate 0.0625 kg/ha,3.0
same,herbicidal rating SETVI,[12]; rate 0.0156 kg/ha,3.0
same,herbicidal rating SETVI,[12]; rate 0.0313 kg/ha,5.0
same,herbicidal rating SETVI,[12]; rate 0.0625 kg/ha,5.0
same,"herbicidal effect rating, SAGPY",[13]; 0.0313 kg/ha,0.0
same,"herbicidal effect rating, SAGPY",[13]; 0.0625 kg/ha,0.0
same,"herbicidal effect rating, SAGPY",[13]; 0.1250 kg/ha,4.0
same,"herbicidal effect rating, SAGPY",[13]; 0.2500 kg/ha,5.0
same,herbicidal rating GLXMAW,[14]; rate 0.0156 kg/ha,6.7
same,herbicidal rating GLXMAW,[14]; rate 0.0313 kg/ha,7.3
same,herbicidal rating GLXMAW,[14]; rate 0.0625 kg/ha,7.0
